{"source": "paper PMC12155096", "about": "(International Journal of Molecular Sciences, 2025)", "key": {"[1]": {"molecular_target": "Photinus pyralis (firefly) luciferase (Photinus pyralis, UniProt P08659)", "sequence (P08659 whole entry)": "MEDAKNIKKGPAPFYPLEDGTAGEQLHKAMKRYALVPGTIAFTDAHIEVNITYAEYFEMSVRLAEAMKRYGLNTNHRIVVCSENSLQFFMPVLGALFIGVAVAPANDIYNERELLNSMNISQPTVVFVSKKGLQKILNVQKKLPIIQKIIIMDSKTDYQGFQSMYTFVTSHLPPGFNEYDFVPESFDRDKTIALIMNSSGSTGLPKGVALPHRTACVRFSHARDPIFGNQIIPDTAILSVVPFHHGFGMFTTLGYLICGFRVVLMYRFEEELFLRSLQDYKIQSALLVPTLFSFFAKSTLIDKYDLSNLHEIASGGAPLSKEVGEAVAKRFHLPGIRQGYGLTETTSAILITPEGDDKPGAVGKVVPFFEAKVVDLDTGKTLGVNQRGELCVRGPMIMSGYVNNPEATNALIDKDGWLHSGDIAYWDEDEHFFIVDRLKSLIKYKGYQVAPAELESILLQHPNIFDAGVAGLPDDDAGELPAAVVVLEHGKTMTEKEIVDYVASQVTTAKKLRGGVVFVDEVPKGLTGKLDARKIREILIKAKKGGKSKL", "experiment": "biochemical", "format": "biochemical"}, "[2]": {"molecular_target": "T1, human CYP1A2 (Homo sapiens, UniProt P05177)", "T1 sequence (P05177 1-516)": "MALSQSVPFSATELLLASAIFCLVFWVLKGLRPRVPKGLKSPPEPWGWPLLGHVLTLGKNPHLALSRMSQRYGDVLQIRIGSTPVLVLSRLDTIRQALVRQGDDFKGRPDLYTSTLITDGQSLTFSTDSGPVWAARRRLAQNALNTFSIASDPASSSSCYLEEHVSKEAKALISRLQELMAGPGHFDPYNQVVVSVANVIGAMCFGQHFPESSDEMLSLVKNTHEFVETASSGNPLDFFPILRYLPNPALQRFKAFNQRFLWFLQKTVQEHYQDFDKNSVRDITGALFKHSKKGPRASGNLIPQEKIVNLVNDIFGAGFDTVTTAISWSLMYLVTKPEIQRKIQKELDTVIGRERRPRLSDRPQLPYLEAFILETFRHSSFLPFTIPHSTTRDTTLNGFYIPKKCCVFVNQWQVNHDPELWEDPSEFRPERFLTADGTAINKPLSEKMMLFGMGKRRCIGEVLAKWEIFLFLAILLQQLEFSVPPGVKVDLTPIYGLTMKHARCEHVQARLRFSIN"}, "[3]": {"molecular_target": "T2, human CYP2C9 (Homo sapiens, UniProt P11712)", "T2 sequence (P11712 whole entry)": "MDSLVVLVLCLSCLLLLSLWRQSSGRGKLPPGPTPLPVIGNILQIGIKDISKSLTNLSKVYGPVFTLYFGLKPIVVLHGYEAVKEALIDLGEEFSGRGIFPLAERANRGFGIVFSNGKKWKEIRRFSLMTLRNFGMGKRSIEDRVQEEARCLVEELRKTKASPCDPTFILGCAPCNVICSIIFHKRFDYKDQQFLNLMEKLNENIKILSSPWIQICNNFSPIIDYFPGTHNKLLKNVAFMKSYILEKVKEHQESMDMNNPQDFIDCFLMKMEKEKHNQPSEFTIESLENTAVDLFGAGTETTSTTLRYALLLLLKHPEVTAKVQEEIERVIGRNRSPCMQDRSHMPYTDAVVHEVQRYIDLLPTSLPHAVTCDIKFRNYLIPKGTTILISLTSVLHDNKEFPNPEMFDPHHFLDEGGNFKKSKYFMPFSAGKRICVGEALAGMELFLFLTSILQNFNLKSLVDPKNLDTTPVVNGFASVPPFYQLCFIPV"}, "[4]": {"molecular_target": "T3, human CYP2C19 (Homo sapiens, UniProt P33261)", "T3 sequence (P33261 whole entry)": "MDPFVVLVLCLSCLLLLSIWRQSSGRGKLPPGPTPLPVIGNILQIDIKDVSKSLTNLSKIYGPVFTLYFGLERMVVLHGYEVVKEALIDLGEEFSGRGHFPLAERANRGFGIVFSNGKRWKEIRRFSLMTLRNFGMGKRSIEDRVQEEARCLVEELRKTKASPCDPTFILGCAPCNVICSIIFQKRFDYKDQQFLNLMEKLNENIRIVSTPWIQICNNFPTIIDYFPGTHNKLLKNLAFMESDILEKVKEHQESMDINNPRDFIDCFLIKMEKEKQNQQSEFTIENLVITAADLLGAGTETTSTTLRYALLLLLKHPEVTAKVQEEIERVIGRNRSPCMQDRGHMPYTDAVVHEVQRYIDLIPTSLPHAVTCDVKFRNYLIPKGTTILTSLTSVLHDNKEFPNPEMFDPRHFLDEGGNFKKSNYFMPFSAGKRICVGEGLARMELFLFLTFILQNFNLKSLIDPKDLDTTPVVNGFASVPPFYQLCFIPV"}, "[5]": {"molecular_target": "human CYP2D6 (Homo sapiens, UniProt P10635)", "sequence (P10635 whole entry)": "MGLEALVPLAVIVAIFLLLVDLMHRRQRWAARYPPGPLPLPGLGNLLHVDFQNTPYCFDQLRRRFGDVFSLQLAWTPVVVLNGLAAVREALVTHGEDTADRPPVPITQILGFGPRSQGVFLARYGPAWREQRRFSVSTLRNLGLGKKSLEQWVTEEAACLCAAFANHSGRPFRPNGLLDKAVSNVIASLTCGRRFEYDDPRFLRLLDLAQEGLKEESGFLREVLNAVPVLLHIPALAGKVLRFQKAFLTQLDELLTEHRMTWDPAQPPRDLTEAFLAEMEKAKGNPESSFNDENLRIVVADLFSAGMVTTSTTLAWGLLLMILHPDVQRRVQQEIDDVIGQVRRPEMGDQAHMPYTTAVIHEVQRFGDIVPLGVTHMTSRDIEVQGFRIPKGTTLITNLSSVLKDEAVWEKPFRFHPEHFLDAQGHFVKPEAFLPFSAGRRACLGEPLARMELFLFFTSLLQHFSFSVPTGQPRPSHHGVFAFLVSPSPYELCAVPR"}, "[6]": {"molecular_target": "CYP3A4 (Homo sapiens, UniProt P08684)", "sequence (P08684 whole entry)": "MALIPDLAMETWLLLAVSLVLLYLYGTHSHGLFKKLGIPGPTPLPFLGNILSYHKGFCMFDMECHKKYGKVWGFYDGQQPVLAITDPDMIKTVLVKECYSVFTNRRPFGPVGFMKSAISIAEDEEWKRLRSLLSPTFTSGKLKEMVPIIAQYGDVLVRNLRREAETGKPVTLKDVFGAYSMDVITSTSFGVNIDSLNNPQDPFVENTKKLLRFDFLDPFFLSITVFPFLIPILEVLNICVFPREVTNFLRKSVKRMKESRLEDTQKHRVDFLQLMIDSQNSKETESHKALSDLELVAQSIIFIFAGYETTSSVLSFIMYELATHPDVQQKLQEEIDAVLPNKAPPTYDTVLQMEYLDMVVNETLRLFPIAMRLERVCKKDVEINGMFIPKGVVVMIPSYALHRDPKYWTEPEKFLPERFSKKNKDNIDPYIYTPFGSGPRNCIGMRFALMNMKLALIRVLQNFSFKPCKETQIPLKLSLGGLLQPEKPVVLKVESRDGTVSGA"}, "[7]": {"molecular_target": "T1, human CYP1A2", "experiment": "biochemical"}, "[8]": {"molecular_target": "T2, human CYP2C9", "experiment": "biochemical"}, "[9]": {"molecular_target": "T3, human CYP2C19", "experiment": "biochemical"}}, "note": "Structures can show the parent of a compound that is named as a salt. Where two headings read alike, the source gives them in different places."}
{"smiles": "CCOP(=O)([O-])OCC.CCn1cc[n+](C)c1", "values": [{"measurement": "Luciferase Efficacy (in parenthesis)", "setting": "[1]", "value": "86.36 ± 7.02 (-39 ± 30) %"}, {"measurement": "IC50", "setting": "[1]; read-out: Luciferase IC50 (half-maximal inhibitory concentration)", "value": 86.4, "unit": "µM"}, {"measurement": "CYP1A2 Efficacy (in parenthesis)", "setting": "[2]", "value": "78.99 ± 0 (-105 ± 5) %"}, {"measurement": "IC50", "setting": "[2]", "value": 79, "unit": "µM"}, {"measurement": "CYP2C9 Efficacy (in parenthesis)", "setting": "[3]", "value": "58.2 ± 3.94 (-117 ± 2) %"}, {"measurement": "IC50", "setting": "[3]", "value": 58.2, "unit": "µM"}, {"measurement": "CYP2C19 Efficacy (in parenthesis)", "setting": "[4]", "value": "68.44 ± 11.66 (-161 ± 32) %"}, {"measurement": "IC50", "setting": "[4]", "value": 68.4, "unit": "µM"}, {"measurement": "CYP2D6 Efficacy (in parenthesis)", "setting": "[5]", "value": "0.61 ± 0.29 (-97 ± 6) %"}, {"measurement": "IC50", "setting": "[5]", "value": 0.61, "unit": "µM"}, {"measurement": "CYP3A4 Efficacy (in parenthesis)", "setting": "[6]", "value": "45.03 ± 9.43 (-76 ± 7) %"}, {"measurement": "IC50", "setting": "[6]", "value": 45, "unit": "µM"}]}
{"smiles": "Cl.ClCCCN1CCN(c2cccc(Cl)c2)CC1", "values": [{"measurement": "Luciferase IC50", "setting": "[1]", "value": "Inactive"}, {"measurement": "AC50", "setting": "[2]", "value": 16.1, "unit": "µM"}, {"measurement": "CYP1A2 Efficacy", "setting": "[2]", "value": "16.12 ± 1.09 (-77 ± 4) %"}, {"measurement": "AC50", "setting": "[3]", "value": 16.8, "unit": "µM"}, {"measurement": "CYP2C9 Efficacy", "setting": "[3]", "value": "16.75 ± 1.09 (-48 ± 5) %"}, {"measurement": "AC50", "setting": "[4]", "value": 8.86, "unit": "µM"}, {"measurement": "CYP2C19 Efficacy", "setting": "[4]", "value": "8.86 ± 2.03 (-125 ± 5) %"}, {"measurement": "AC50", "setting": "[5]", "value": 0.79, "unit": "µM"}, {"measurement": "CYP2D6 Efficacy", "setting": "[5]", "value": "0.79 ± 0.18 (-96 ± 4) %"}, {"measurement": "AC50", "setting": "[6]", "value": 15.5, "unit": "µM"}, {"measurement": "CYP3A4 IC50", "setting": "[6]", "value": "15.49 ± 0 (111 ± 12) µM"}]}
{"smiles": "CCCC[P+](CC)(CCCC)CCCC.CCOP(=O)([O-])OCC", "values": [{"measurement": "Luciferase IC50", "setting": "[1]", "value": "Inactive"}, {"measurement": "CYP1A2 IC50", "setting": "[2]", "value": "Inactive"}, {"measurement": "CYP2C9 IC50", "setting": "[3]", "value": "Inactive"}, {"measurement": "CYP2C19 Efficacy", "setting": "[4]", "value": "70.71 ± 33.56 (-88 ± 37) %"}, {"measurement": "IC50", "setting": "[5]", "value": 0.06, "unit": "µM"}, {"measurement": "CYP3A4 IC50", "setting": "[6]", "value": "Inactive"}]}
{"smiles": "Cl.Cl.NCCNc1cccc2ccccc12", "values": [{"measurement": "Luciferase IC50", "setting": "[1]", "value": "Inactive"}, {"measurement": "CYP1A2 Efficacy", "setting": "[2]", "value": "0.57 ± 0.07 (-100 ± 5) %"}, {"measurement": "CYP2C9 Efficacy", "setting": "[3]", "value": "17.25 ± 2.37 (-110 ± 3) %"}, {"measurement": "CYP2C19 Efficacy", "setting": "[4]", "value": "24.7 ± 6.17 (-146 ± 5) %"}, {"measurement": "CYP2D6 Efficacy", "setting": "[5]", "value": "5.04 ± 0.58 (-104 ± 5) %"}, {"measurement": "IC50", "setting": "[6]", "value": 31.8, "unit": "µM"}]}
{"smiles": "Cl.Cl.c1ccc(CNCCNCc2ccccc2)cc1", "values": [{"measurement": "Luciferase IC50", "setting": "[1]", "value": "Inactive"}, {"measurement": "CYP1A2 Efficacy", "setting": "[2]", "value": "20.22 ± 5.13 (-47 ± 10) %"}, {"measurement": "CYP2C9 IC50", "setting": "[3]", "value": "Inactive"}, {"measurement": "CYP2C19 Efficacy", "setting": "[4]", "value": "8.08 ± 0.55 (-122 ± 16) %"}, {"measurement": "CYP2D6 Efficacy", "setting": "[5]", "value": "0.79 ± 0.18 (-110 ± 5) %"}]}
{"smiles": "CC[C@]12CCCN3CCc4c(n(c5ccccc45)C(=O)C1)[C@@H]32", "note": "[(-)-Eburnamonine]", "values": [{"measurement": "Luciferase IC50 (half-maximal inhibitory concentration)", "setting": "[1]", "value": "Inactive"}, {"measurement": "IC50", "setting": "[2]", "value": 24.1, "unit": "µM"}, {"measurement": "IC50", "setting": "[3]", "value": 20.1, "unit": "µM"}, {"measurement": "IC50", "setting": "[4]", "value": 6.17, "unit": "µM"}, {"measurement": "IC50", "setting": "[6]", "value": 4.38, "unit": "µM"}]}
{"smiles": "CCCCCCCCCCCCCCCC[N+](C)(C)Cc1ccccc1.[Cl-]", "note": "[Benzylhexadecyldimethylammonium chloride]", "values": [{"measurement": "Luciferase IC50", "setting": "[1]", "value": "Inactive"}, {"measurement": "CYP1A2 Efficacy", "setting": "[2]", "value": "75.23 ± 5.09 (-82 ± 8) %"}, {"measurement": "CYP2C9 Efficacy", "setting": "[3]", "value": "46.2 ± 8.63 (-120 ± 17) %"}, {"measurement": "CYP2C19 Efficacy", "setting": "[4]", "value": "46.97 ± 13.09 (-144 ± 26) %"}, {"measurement": "CYP2D6 Efficacy", "setting": "[5]", "value": "0.34 ± 0.06 (-98 ± 2) %"}]}
{"smiles": "CN(C)CCN(Cc1ccc(Cl)cc1)c1ccccn1.Cl", "note": "[Chloropyramine hydrochloride]", "values": [{"measurement": "Luciferase IC50", "setting": "[1]", "value": "Inactive"}, {"measurement": "CYP1A2 Efficacy", "setting": "[2]", "value": "20.13 ± 6.48 (-40 ± 3) %"}, {"measurement": "CYP2C19 Efficacy", "setting": "[4]", "value": "7.51 ± 1.03 (-122 ± 9) %"}, {"measurement": "CYP2D6 Efficacy", "setting": "[5]", "value": "0.23 ± 0.05 (-101 ± 4) %"}, {"measurement": "CYP3A4 IC50", "setting": "[6]", "value": "Inactive"}]}
{"smiles": "C[C@@H](NCCCc1cccc(C(F)(F)F)c1)c1cccc2ccccc12", "note": "[Cinacalcet hydrochloride]", "values": [{"measurement": "Luciferase IC50", "setting": "[1]", "value": "Inactive"}, {"measurement": "IC50", "setting": "[5]; human", "value": 0.05, "unit": "µM"}, {"measurement": "IC50", "setting": "[7]", "value": "26.9 ± 8.25", "unit": "µM"}, {"measurement": "IC50", "setting": "[8]", "value": 38.9, "unit": "µM"}, {"measurement": "IC50", "setting": "[9]", "value": "10.8 ± 2.69", "unit": "µM"}]}
{"smiles": "C[C@@H](Cc1ccccc1)NCc1ccccc1Cl.Cl", "note": "[Clobenzorex hydrochloride]", "values": [{"measurement": "Luciferase IC50", "setting": "[1]", "value": "Inactive"}, {"measurement": "CYP1A2 Efficacy", "setting": "[2]", "value": "15.49 ± 0 (-71 ± 4) %"}, {"measurement": "CYP2C9 IC50", "setting": "[3]", "value": "Inactive"}, {"measurement": "CYP2C19 Efficacy", "setting": "[4]", "value": "1.49 ± 0.1 (-137 ± 12) %"}, {"measurement": "CYP2D6 Efficacy", "setting": "[5]", "value": "0.15 ± 0.03 (-111 ± 2) %"}]}
{"smiles": "O=c1c(-c2ccc(O)cc2)coc2cc(O)ccc12", "note": "[Daidzein]", "values": [{"measurement": "IC50", "setting": "[1]", "value": 19.6, "unit": "µM"}, {"measurement": "CYP2D6 IC50 (half-maximal inhibitory concentration)", "setting": "[5]", "value": "Inactive"}, {"measurement": "IC50", "setting": "[7]; CYP1A2 IC50 (half-maximal inhibitory concentration)", "value": 28.3, "unit": "µM"}, {"measurement": "IC50", "setting": "[8]; CYP2C9 IC50 (half-maximal inhibitory concentration)", "value": 0.36, "unit": "µM"}, {"measurement": "IC50", "setting": "[9]; CYP2C19 IC50 (half-maximal inhibitory concentration)", "value": 36.4, "unit": "µM"}]}
{"smiles": "CCOP(=S)(OCC)Oc1cc(C)nc(C(C)C)n1", "note": "[Diazinon]", "values": [{"measurement": "Luciferase IC50", "setting": "[1]", "value": "Inactive"}, {"measurement": "CYP2D6 IC50", "setting": "[5]", "value": "Inactive"}, {"measurement": "IC50", "setting": "[7]; CYP1A2 IC50", "value": 7.13, "unit": "µM"}, {"measurement": "IC50", "setting": "[8]; CYP2C9 IC50", "value": 1.99, "unit": "µM"}, {"measurement": "IC50", "setting": "[9]; CYP2C19 IC50", "value": 0.44, "unit": "µM"}]}
{"smiles": "CC#C[C@]1(O)CC[C@H]2[C@@H]3C[C@H](C)C4=CC(=O)CC[C@]4(C)[C@H]3CC[C@@]21C", "note": "[Dimethisteron]", "values": [{"measurement": "Luciferase IC50", "setting": "[1]", "value": "Inactive"}, {"measurement": "CYP1A2 IC50", "setting": "[2]", "value": "Inactive"}, {"measurement": "CYP2D6 IC50", "setting": "[5]", "value": "Inactive"}, {"measurement": "IC50", "setting": "[8]; CYP2C9 IC50", "value": 24.1, "unit": "µM"}, {"measurement": "IC50", "setting": "[9]; CYP2C19 IC50", "value": 9.42, "unit": "µM"}]}
{"smiles": "ClC1=C(Cl)C2(Cl)C3C4CC(C5OC45)C3C1(Cl)C2(Cl)Cl", "note": "(stereo not shown) [Endrin]", "values": [{"measurement": "Luciferase IC50", "setting": "[1]", "value": "Inactive"}, {"measurement": "CYP2D6 IC50", "setting": "[5]", "value": "Inactive"}, {"measurement": "IC50", "setting": "[7]; CYP1A2 IC50", "value": 54, "unit": "µM"}, {"measurement": "IC50", "setting": "[8]; CYP2C9 IC50", "value": 12.4, "unit": "µM"}, {"measurement": "IC50", "setting": "[9]; CYP2C19 IC50", "value": 26.6, "unit": "µM"}]}
